Measured values: patent US20110293593A1, “SIVA 2 STABILIZATION” (YEDA RESEARCH AND DEVELOPMENT CO., LTD., priority 2008, published 2011)
Peptide text beside a SMILES is read from it. * marks the point of attachment. Cbz = O=C(OCc1ccccc1)*

Tests used:
SIVA2 [1] = assay: SIVA2 level/stabilization in transfected HEK-293T and EcR-293 cells, western blotting; format: cell-based, human; conditions: HEK-293T
Experimental: (A) Expression of SIVA1 and SIVA2 in various cell lines. For each cell line, cellular protein (30 μg) was resolved by 13.5% SDS-PAGE and probed with anti-SIVA antibody. The two lanes at the right show SIVA1 and SIVA2 overexpressed in HEK-293T cells (for each protein, 2 μg cDNA/well in 6-well plates). (B) Several SIVA isoforms are expressed in PBMCs. […] (C) Ligand activation increases the amount of SIVA2 in resting PBMCs. Cells (2×10^6) were treated with the indicated ligands for 8 h and the cell lysates were analyzed by western blotting. […] The cells were stimulated with PHA (1 μg/ml) for 48 h, washed twice with phosphate-buffered saline, and incubated for an additional period of 18 h without PHA. Ligands and genotoxic agents (camptothecin (CPT) 10 μM and cisplatin (CIS) 50 μM) were then applied for 18 h. MG132 was applied for the last 4 h of treatment. Except where otherwise indicated, MG132 was applied in this study at a concentration of […] denotes a non-specific band serving as loading control. […] PBMCs were activated as in FIG. 1d. Ligands were applied to the indicated cell types for 18 h. Semi-quantitative RT-PCR for SIVA message was performed as described in Methods. GAPDH was used as a basis for normalization. […] SIVA2 or SIVA1 plasmids (0.5 μg) were transfected, and 18 h later ligands were applied for 8 h. Total-cell lysates were analyzed by western blotting using anti-SIVA antibody. TNF-induced SIVA2 stabilization was assessed in EcR-293-CD27 cells. (G) Inducibly expressed SIVA2 is stabilized by CD70. EcR-293-CD27-SIVA2 cells (see Methods) were treated with ponasterone and CD70 as indicated. Total-cell lysates were analyzed by western blotting using LDH as the loading control (bottom panel). […] HEK-293T cells were transfected with FLAG-SIVA2 and analyzed 24 h after transfection. MG132 was applied for the last 4 h of treatment. TCL, total cell lysate. (I) Differential effects of genotoxic agents on the expression of SIVA1 and SIVA2. Top: HepG2 cells were treated with CPT for 18 h. When indicated, they were transfected with pSUPER SIVA 30 h prior to CPT application. Cells lysates were analyzed by western blotting using anti-SIVA antibody. Middle: HepG2 cells were exposed to UVC (20 J/m^2) and levels of SIVA proteins were determined after 18 h of treatment. […] Bottom: HEK-293T cells were transfected with 0.5 μg of FLAG-SIVA2. CPT and CD40L were applied, 8 h after transfection, for a further 18 h.
HEK-293T cells cotransfected with NIK and SIVA2 were metabolically labeled with azido-GlcNAc, in-vitro biotinylated, and immunoprecipitated. The biotin-labeled GlcNAc moieties in SIVA2 were detected with streptavidin horseradish peroxidase (HRP). (B) SIVA binds to wheatgerm-agglutinin. The plasmids for SIVA2, alone or together with NIK or TRAF2, were transiently expressed in HEK-293T cells. Lactacystin was applied for the last 6 h of the 24-h treatment period. Lysates were analyzed for expression (right panel) and WGA binding (left panel) of SIVA2. N-acetyl-D-glucosamine (0.5 M) was added as a competitor for WGA binding. […] FLAG-SIVA2 was cotransfected with myc-NIK into HEK-293T cells and immunoprecipitated with anti-FLAG-M2 beads. The immunoprecipitated beads were boiled with 1% SDS and the eluted proteins were treated with […] hexosaminidase as described (Whelan, 2006). The samples were collected after treatment for 4, 8, and 20 h, diluted with WGA binding buffer, and lectin binding was assayed as described in Methods. Immunoprecipitation of the protein with anti-FLAG-M2 beads after treatment for 8 h as described above, followed by western analysis, confirmed that despite having lost the ability to bind to WGA the protein remained intact. ‘Sup’, SIVA protein remaining unbound after the reaction. […] The plasmids were transiently expressed in HEK-293T cells. DON (50 μM) was applied for the last 16 h and MG132 for the last 6 h of the 28-h treatment period. […] The experiment was performed as in (D). […]

SIVA2 [2] = assay: SIVA2 protein level in PBMCs, western blotting with anti-SIVA antibody; format: cell-based, human; conditions: PHA-activated PBMCs; CPT 10 μM, CIS 50 μM for 18 h; MG132 last 4 h
Experimental: For each cell line, cellular protein (30 μg) was resolved by 13.5% SDS-PAGE and probed with anti-SIVA antibody. The two lanes at the right show SIVA1 and SIVA2 overexpressed in HEK-293T cells (for each protein, 2 μg cDNA/well in 6-well plates). […] Cells (2×10^6) were treated with the indicated ligands for 8 h and the cell lysates were analyzed by western blotting. […] The cells were stimulated with PHA (1 μg/ml) for 48 h, washed twice with phosphate-buffered saline, and incubated for an additional period of 18 h without PHA. Ligands and genotoxic agents (camptothecin (CPT) 10 μM and cisplatin (CIS) 50 μM) were then applied for 18 h. MG132 was applied for the last 4 h of treatment. Except where otherwise indicated, MG132 was applied in this study at a concentration of […] denotes a non-specific band serving as loading control. […] PBMCs were activated as in FIG. 1d. Ligands were applied to the indicated cell types for 18 h. Semi-quantitative RT-PCR for SIVA message was performed as described in Methods. GAPDH was used as a basis for normalization. […] SIVA2 or SIVA1 plasmids (0.5 μg) were transfected, and 18 h later ligands were applied for 8 h. Total-cell lysates were analyzed by western blotting using anti-SIVA antibody. […] EcR-293-CD27-SIVA2 cells (see Methods) were treated with ponasterone and CD70 as indicated. Total-cell lysates were analyzed by western blotting using LDH as the loading control (bottom panel). […] HEK-293T cells were transfected with FLAG-SIVA2 and analyzed 24 h after transfection. MG132 was applied for the last 4 h of treatment. TCL, total cell lysate. […] Top: HepG2 cells were treated with CPT for 18 h. When indicated, they were transfected with pSUPER SIVA 30 h prior to CPT application. Cells lysates were analyzed by western blotting using anti-SIVA antibody. Middle: HepG2 cells were exposed to UVC (20 J/m^2) and levels of SIVA proteins were determined after 18 h of treatment. […] Bottom: HEK-293T cells were transfected with 0.5 μg of FLAG-SIVA2. CPT and CD40L were applied, 8 h after transfection, for a further 18 h.
Cells. Peripheral-blood mononuclear cells (PBMCs) were isolated from buffy-coat samples and cultured as described (Ramakrishnan et al., 2004). Ecdysone-inducible EcR-293-CD27 cell lines expressing SIVA2 (EcR-293-CD27-SIVA2) or SIVA1 (EcR-293-CD27-SIVA1) and EcR-293-CD40 were generated by transfection using the calcium phosphate method according to the instructions of the manufacturer (Invitrogen). All adherent cells—HEK-293T, EcR-293 (Invitrogen), HeLa, HeLa T-REx (Invitrogen), and HepG2—were cultured in Dulbecco's modified Eagle's medium. Both culture media were supplemented with 10% fetal calf serum, 100 U/ml pencillin, and 100 μg/ml streptomycin. The human lymphoblastoid lines Ramos (Human Burkitt's lymphoma cell line) and BJAB (B-lymphoblastoma cell line) were cultured in RPMI medium. Ecdysone-inducible EcR293-CD27 and EcR293-CD40 cell lines were generated by their stable transfection with cDNAs for human CD27 and CD40, respectively. EcR293-CD27 cell lines expressing SIVA2 (EcR293-CD27-SIVA2) or SIVA1 (EcR293-CD27-SIVA1) were generated by transfection using the calcium phosphate method, and myc NIK and myc NIK (K670A) were later introduced into these cells by retroviral transduction and selection with 1 μg/ml puromycin. Ramos cells constitutively expressing myc-NIK were generated by retroviral transduction, followed by selection with 1 μg/ml puromycin. […]

`CC(=O)N[C@H]1[C@@H](OCc2ccccc2)O[C@H](CO)[C@H](O)[C@@H]1O` [BADGP, benzyl-α-GalNAc] was tested, and the “NIK-induced SIVA2 stabilization” value (SIVA2 [1]; NIK + SIVA2, 0.7, 1.4, or 2.0 mM BADGP last 16 h of 28 h) was “blocks NIK-induced SIVA2 stabilization”.
In the case of `N.N.[Cl][Pt][Cl]` [CIS, cisplatin], the “SIVA2 levels in activated PBMCs” value (SIVA2 [2]) is reported as “but not genotoxic stress, increase SIVA2 levels”.
With `CC[C@@]1(O)C(=O)OCc2c1cc1n(c2=O)Cc2cc3ccccc3nc2-1` [CPT, camptothecin] the “SIVA2 levels in activated PBMCs” value (SIVA2 [2]) was “but not genotoxic stress, increase SIVA2 levels” and the “cytokine (CD40)-induced stabilization/enhancement of SIVA2 under genotoxic agent” value (SIVA2 [1]; FLAG-SIVA2, CPT and CD40L for 18 h) was “decreased”.
`[N-]=[N+]=CC(=O)CC[C@H](N)C(=O)O` [DON, 6-diazo-5-oxo-L-norleucine] was tested, and the “MG132-induced SIVA2 stabilization” value (SIVA2 [1]; DON 50 μM last 16 h, MG132 last 6 h) was “does not affect MG132-induced stabilization”, the “TRAF2-induced SIVA2 stabilization” value (SIVA2 [1]; DON 50 μM last 16 h of 28 h) was “interferes with TRAF2-induced SIVA2 stabilization” and the “NIK-mediated stabilization of wild-type SIVA2” value (SIVA2 [1]; DON as in FIG. 3D) was “blocks the NIK-mediated stabilization of wild-type SIVA2”. For the same compound, the “residual stabilization by NIK of the SIVA2 6SA mutant” value (SIVA2 [1]; DON as in FIG. 3D) was “has no effect on the residual stabilization by NIK of the SIVA2 6SA mutant”.
With `CC(C)C[C@@H](C=O)NC(=O)[C@H](CC(C)C)NC(=O)[C@H](CC(C)C)NC(=O)OCc1ccccc1` [MG132] (Cbz-Leu-Leu-Leu-aldehyde) the “SIVA2 levels in activated PBMCs” value (SIVA2 [2]) was “increase SIVA2 levels”, the “accumulation of polyubiquitinated SIVA2” value (SIVA2 [1]; FLAG-SIVA2, MG132 last 4 h) was “enhances accumulation of the polyubiquitinated protein” and the “stabilization of transiently expressed SIVA2” value (SIVA2 [1]; FLAG-SIVA2, MG132 last 4 h) was “stabilizes transiently expressed SIVA2”. For the same compound, the “stabilization of SIVA2 (1-58) (SIVA N-terminus)” value (SIVA2 [1]; MG132 25 uM last 6 h of 24 h) was “stabilizes SIVA N-terminus” and the “stabilization of SIVA2 serine mutants” value (SIVA2 [1]; MG132 added 18 h after transfection for 6 h) was “stabilize the SIVA2 serine mutants that cannot be stabilized by NIK”.
